Reference: ChEMBL document CHEMBL4507274 (2021)

Experiments:
[1] = target: Cyclin-dependent kinase 19 (Homo sapiens) (UniProt Q9BWU1); settings: Compound concentration 100.0 nM
[2] = target: Beta-1 adrenergic receptor (Homo sapiens) (UniProt P08588); settings: Compound concentration 10.0 uM
[3] = target: Mitogen-activated protein kinase kinase kinase kinase 2 (Homo sapiens) (UniProt Q12851); settings: Compound concentration 100.0 nM
[4] = target: Ephrin type-A receptor 1 (Homo sapiens) (UniProt P21709); settings: Compound concentration 100.0 nM
[5] = target: Activin receptor type-1B (Homo sapiens) (UniProt P36896); settings: Compound concentration 100.0 nM
[6] = target: Inhibitor of nuclear factor kappa-B kinase subunit beta (Homo sapiens) (UniProt O14920); settings: Compound concentration 100.0 nM
[7] = target: Ribosomal protein S6 kinase alpha-1 (Homo sapiens) (UniProt Q15418); settings: Compound concentration 100.0 nM
[8] = target: Insulin receptor (Homo sapiens) (UniProt P06213); settings: Compound concentration 100.0 nM
[9] = target: Alpha-1A adrenergic receptor (Homo sapiens) (UniProt P35348); settings: Compound concentration 10.0 uM
[10] = target: Serine/threonine-protein kinase SIK3 (Homo sapiens) (UniProt Q9Y2K2); settings: Compound concentration 100.0 nM
[11] = target: T1, Tyrosine-protein kinase receptor TYRO3 (Homo sapiens) (UniProt Q06418); settings: Compound concentration 100.0 nM
T1 sequence (whole entry): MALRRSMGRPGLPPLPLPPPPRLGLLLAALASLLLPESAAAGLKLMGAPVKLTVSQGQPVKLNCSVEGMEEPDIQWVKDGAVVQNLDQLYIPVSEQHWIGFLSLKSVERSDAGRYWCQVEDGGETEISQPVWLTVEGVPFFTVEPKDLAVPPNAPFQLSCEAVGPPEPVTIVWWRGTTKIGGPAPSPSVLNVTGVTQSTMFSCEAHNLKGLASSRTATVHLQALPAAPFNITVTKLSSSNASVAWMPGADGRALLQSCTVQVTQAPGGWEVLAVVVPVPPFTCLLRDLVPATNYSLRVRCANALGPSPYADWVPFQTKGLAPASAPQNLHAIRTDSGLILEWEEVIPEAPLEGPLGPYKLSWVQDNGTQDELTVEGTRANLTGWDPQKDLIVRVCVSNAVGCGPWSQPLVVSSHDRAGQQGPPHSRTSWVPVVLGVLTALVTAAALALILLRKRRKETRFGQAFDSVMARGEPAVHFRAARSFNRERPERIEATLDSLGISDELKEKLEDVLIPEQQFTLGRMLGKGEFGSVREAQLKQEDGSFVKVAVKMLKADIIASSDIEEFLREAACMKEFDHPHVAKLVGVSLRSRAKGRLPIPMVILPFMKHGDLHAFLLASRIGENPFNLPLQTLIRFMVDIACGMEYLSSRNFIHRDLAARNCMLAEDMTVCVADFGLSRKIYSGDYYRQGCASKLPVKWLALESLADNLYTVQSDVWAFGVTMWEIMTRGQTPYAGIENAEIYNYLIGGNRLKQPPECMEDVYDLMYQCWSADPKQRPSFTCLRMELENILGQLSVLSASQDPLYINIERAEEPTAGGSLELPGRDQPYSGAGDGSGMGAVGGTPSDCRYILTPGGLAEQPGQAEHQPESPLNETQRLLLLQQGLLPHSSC

[12] = target: Mitogen-activated protein kinase 1 (Homo sapiens) (UniProt P28482); settings: Compound concentration 100.0 nM
[13] = target: Calcium/calmodulin-dependent protein kinase type II subunit gamma (Homo sapiens) (UniProt Q13555); settings: Compound concentration 100.0 nM
[14] = target: SRSF protein kinase 1 (Homo sapiens) (UniProt Q96SB4); settings: Compound concentration 100.0 nM
[15] = target: Phosphatidylinositol 5-phosphate 4-kinase type-2 beta (Homo sapiens) (UniProt P78356); settings: Compound concentration 100.0 nM
[16] = test system: Tyrosine-protein kinase ABL1 (Homo sapiens), P00519 [F317L]; settings: Compound concentration 100.0 nM
[17] = target: Phosphatidylinositol 3-kinase C2 domain-containing subunit gamma (Homo sapiens) (UniProt O75747); settings: Compound concentration 100.0 nM
[18] = target: Cyclin-dependent kinase 8 (Homo sapiens) (UniProt P49336); settings: Compound concentration 100.0 nM
[19] = test system: Fibroblast growth factor receptor 3 (Homo sapiens), P22607 [G697C]; settings: Compound concentration 100.0 nM
[20] = target: Serine/threonine-protein kinase SIK2 (Homo sapiens) (UniProt Q9H0K1); settings: Compound concentration 100.0 nM
[21] = target: T2, Serine/threonine-protein kinase Sgk1 (Homo sapiens) (UniProt O00141); settings: Compound concentration 100.0 nM
T2 sequence (whole entry): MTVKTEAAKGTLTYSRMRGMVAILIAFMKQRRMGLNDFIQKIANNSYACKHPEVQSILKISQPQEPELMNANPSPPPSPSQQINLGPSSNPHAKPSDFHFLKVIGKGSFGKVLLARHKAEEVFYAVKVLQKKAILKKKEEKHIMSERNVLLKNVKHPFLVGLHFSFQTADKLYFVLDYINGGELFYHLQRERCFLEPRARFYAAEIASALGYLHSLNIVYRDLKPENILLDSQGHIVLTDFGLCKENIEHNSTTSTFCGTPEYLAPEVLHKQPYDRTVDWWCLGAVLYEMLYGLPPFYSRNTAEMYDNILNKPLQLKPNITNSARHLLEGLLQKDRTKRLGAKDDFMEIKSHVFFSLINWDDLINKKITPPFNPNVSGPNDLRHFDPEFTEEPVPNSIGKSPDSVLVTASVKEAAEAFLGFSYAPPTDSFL

[22] = target: Dual specificity mitogen-activated protein kinase kinase 2 (Homo sapiens) (UniProt P36507); settings: Compound concentration 100.0 nM

Sequence of Ephrin type-A receptor 1 (Homo sapiens) (P21709 whole entry): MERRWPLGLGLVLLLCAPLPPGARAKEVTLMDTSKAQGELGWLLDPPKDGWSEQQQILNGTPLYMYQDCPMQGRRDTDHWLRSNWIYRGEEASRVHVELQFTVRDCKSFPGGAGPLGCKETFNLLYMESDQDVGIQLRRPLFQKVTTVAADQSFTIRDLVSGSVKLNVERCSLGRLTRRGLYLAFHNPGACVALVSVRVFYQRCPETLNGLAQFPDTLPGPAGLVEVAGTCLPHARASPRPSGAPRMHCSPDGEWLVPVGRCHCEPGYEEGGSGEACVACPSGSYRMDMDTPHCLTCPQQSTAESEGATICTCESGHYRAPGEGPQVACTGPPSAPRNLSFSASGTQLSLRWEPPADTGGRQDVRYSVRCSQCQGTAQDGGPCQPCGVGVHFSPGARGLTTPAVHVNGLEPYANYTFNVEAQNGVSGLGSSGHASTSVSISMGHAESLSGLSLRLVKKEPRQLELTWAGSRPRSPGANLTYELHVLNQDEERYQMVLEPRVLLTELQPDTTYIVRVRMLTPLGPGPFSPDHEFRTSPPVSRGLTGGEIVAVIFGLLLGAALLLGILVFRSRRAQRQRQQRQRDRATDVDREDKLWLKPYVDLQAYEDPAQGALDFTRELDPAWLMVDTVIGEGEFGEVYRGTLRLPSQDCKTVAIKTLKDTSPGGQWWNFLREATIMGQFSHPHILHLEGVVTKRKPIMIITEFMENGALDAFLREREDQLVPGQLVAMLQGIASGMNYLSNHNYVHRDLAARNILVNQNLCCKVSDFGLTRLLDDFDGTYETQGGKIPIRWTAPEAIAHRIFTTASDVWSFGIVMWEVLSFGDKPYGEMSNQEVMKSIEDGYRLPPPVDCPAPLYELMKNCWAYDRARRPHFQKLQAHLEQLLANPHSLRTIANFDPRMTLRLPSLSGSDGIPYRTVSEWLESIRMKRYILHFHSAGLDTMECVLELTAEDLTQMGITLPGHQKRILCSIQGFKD
Sequence of SRSF protein kinase 1 (Homo sapiens) (Q96SB4 whole entry): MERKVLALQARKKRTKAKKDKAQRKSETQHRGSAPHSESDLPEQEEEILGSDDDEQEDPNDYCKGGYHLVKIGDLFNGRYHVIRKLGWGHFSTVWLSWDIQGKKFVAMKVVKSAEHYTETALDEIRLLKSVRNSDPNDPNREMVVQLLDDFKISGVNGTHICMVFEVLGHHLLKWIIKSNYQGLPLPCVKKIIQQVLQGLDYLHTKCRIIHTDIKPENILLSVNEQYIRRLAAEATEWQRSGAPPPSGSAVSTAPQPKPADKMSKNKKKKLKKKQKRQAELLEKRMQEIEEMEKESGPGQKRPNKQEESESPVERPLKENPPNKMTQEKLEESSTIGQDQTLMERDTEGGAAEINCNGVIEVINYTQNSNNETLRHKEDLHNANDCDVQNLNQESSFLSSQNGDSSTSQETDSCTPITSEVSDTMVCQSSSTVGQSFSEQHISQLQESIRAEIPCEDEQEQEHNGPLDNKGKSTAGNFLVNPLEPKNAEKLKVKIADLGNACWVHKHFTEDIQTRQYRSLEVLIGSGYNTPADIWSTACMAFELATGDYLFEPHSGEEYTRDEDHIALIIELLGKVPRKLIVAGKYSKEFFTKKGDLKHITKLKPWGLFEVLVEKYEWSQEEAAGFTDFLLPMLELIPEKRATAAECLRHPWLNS
Sequence of Insulin receptor (Homo sapiens) (P06213 28-758 limits assumed): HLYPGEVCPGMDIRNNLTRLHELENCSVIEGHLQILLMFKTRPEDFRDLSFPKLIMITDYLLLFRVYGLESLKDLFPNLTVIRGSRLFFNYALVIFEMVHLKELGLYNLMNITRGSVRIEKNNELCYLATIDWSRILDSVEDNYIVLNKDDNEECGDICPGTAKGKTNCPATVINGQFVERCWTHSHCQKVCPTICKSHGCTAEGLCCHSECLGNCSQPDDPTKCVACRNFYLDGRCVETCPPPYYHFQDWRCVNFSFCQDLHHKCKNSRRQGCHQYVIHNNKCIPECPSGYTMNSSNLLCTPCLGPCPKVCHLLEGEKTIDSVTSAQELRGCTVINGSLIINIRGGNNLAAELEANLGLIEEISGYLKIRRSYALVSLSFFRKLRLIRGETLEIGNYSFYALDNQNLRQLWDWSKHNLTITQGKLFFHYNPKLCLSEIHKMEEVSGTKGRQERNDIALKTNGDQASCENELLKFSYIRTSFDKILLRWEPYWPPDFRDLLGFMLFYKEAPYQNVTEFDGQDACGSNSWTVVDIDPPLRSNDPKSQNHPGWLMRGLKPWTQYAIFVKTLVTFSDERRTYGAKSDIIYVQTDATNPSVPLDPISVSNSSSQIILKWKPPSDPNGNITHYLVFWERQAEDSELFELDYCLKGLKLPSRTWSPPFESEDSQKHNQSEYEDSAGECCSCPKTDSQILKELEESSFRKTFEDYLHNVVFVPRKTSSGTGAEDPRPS
Sequence of Insulin receptor (Homo sapiens) (P06213 763-1382 limits assumed): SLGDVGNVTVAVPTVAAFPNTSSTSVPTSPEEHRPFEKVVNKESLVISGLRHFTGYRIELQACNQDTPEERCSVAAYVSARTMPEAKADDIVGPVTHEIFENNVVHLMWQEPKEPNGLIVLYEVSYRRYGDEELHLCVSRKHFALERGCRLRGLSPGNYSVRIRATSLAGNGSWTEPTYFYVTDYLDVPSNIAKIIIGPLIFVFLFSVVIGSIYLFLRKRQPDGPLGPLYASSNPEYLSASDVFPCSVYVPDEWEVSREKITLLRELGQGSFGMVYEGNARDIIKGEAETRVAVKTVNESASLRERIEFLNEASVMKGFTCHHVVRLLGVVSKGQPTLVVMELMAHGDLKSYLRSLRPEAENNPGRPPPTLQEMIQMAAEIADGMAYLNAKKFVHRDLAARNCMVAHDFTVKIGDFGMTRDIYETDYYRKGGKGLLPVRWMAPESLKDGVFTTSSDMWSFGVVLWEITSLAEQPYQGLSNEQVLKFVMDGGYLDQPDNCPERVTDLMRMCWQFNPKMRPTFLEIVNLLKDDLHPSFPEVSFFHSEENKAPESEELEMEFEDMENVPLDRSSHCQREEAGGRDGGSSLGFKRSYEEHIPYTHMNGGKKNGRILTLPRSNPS
Sequence of Inhibitor of nuclear factor kappa-B kinase subunit beta (Homo sapiens) (O14920 whole entry): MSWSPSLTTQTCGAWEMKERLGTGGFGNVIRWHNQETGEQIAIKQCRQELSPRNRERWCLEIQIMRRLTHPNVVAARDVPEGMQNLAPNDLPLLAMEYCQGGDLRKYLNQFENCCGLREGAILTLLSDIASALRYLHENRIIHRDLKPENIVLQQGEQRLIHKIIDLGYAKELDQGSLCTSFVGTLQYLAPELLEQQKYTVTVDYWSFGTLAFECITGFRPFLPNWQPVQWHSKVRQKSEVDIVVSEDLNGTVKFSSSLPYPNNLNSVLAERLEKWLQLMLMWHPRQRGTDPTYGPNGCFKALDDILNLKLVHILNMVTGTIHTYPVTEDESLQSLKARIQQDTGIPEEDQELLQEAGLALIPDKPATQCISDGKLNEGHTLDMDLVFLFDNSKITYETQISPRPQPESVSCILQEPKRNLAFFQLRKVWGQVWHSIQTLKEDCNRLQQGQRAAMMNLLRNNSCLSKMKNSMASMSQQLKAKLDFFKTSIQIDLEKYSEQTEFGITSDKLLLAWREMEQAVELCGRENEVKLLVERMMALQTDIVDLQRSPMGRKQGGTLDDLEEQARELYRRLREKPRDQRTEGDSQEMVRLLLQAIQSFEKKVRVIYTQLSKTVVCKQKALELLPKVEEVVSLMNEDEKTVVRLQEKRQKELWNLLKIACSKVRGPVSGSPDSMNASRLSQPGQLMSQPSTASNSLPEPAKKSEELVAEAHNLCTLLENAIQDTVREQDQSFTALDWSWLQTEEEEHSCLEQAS
Sequence of Cyclin-dependent kinase 19 (Homo sapiens) (Q9BWU1 whole entry): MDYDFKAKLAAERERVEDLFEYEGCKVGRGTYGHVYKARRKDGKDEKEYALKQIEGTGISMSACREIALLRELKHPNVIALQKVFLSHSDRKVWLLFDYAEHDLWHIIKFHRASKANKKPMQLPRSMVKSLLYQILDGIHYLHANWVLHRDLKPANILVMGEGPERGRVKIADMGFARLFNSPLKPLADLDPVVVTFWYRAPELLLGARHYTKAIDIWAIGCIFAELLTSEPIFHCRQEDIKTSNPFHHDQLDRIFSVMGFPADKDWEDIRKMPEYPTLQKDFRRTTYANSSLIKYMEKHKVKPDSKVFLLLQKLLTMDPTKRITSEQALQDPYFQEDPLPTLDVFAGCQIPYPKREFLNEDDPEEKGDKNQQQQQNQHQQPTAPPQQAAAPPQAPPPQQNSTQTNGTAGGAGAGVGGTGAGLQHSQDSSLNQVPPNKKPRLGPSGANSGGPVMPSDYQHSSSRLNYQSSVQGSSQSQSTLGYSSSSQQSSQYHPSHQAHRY
Sequence of Alpha-1A adrenergic receptor (Homo sapiens) (P35348 whole entry): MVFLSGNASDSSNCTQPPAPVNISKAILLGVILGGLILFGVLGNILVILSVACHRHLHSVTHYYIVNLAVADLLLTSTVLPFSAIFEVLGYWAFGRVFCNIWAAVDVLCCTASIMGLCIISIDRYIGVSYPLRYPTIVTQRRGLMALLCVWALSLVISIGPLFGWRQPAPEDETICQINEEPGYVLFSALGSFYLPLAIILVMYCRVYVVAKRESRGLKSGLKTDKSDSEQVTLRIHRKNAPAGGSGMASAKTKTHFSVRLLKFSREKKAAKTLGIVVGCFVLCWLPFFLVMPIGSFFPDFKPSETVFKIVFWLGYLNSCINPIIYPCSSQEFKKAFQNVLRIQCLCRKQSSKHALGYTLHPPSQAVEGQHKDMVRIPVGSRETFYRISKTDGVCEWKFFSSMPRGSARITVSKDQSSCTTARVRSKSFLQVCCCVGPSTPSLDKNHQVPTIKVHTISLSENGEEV

Cn1cc(Cl)c2c(Oc3c(F)cc(Nc4cc(Cl)nc(N)n4)cc3F)ccnc21 [BAY-4900]
inactive: residual activity [1] 88% | inhibition [2] -2.51% | residual activity [3] 81% | residual activity [4] 100% | residual activity [5] 98% | residual activity [6] 87% | residual activity [7] 86% | residual activity [8] 90% | inhibition [9] -5.31% | residual activity [10] 100% | residual activity [11] 80% | residual activity [12] 100% | residual activity [13] 100% | residual activity [14] 85% | residual activity [15] 76% | residual activity [16] 74% | residual activity [17] 100% | residual activity [18] 97% | residual activity [19] 100% | residual activity [20] 100% | residual activity [21] 80% | residual activity [22] 100%

Cc1c[nH]c2nccc(Oc3c(F)cc(Nc4cc(Cl)nc(N)n4)cc3F)c12 [BAY-549]
inactive: residual activity [1] 80% | inhibition [2] 6.86% | residual activity [3] 69% | residual activity [4] 100% | residual activity [5] 87% | residual activity [6] 69% | residual activity [7] 91% | residual activity [8] 80% | inhibition [9] -7.18% | residual activity [10] 100% | residual activity [11] 100% | residual activity [12] 99% | residual activity [13] 96% | residual activity [14] 100% | residual activity [15] 90% | residual activity [16] 74% | residual activity [17] 100% | residual activity [18] 69% | residual activity [19] 100% | residual activity [20] 100% | residual activity [21] 74% | residual activity [22] 91%
